{
  "source": "patent US8597904B2",
  "about": "“Pharmaceutical compositions for the treatment of conditions responsive to proteasome inhibition” (priority 2007, dated 2013)",
  "key": {"[1]": {"biological_target": "T1, human erythrocyte 20S proteasomes, chymotrypsin-like activity (Homo sapiens, UniProt P28074)", "T1 construct": "which contains human erythrocyte 20S proteasomes; purchased BIOMOL International AK-740; host or cells: human erythrocytes", "format": "biochemical", "description": "A 100 μl reaction volume contained 2 μg/ml 20S proteasome, 100 μM substrate, and the desired concentrations of syringolin A in dilution buffer (50 mM Tris-HCl, pH 7.5, 25 mM KCl, 10 mM NaCl, 1 mM MgCl2). Epoximicin and MG132 (BIOMOL® International) were used as test inhibitors. The release of free AMC (7-amino-4-methylcoumarin) at 37° C. was monitored with an MWGt Sirius HT fluorescence microplate reader (BIO-TEK® Instruments) equipped with a 360 nm excitation and a 460 nm emission filter. Proteolytic activities were measured as the increase in relative fluorescence units (RFU) over time (FIG. 7A-C). […] The initial velocities (vi) were determined from the time derivative of these curves and plotted versus the corresponding inhibitor concentration ([I]). […] Using SigmaPlot, the data were fitted to the hyperbolic equation vi=c+[v0/(Ki′+[I])], where v0 is the velocity of the control. […] The rate of covalent inhibition (kassociation), which equals kobs/[I] was calculated over the range of inhibitor concentrations given in parentheses in FIG. 7D. Values in FIG. 7D represent means±standard deviation.\nThe fluorogenic substrates Suc-LLVY-AMC, Boc-LRR-AMC, and Z-LLE-AMC (BIOMOL® International) were used to monitor chymotrypsin-like, trypsin-like, and caspase-like activities, respectively. […] The release of free AMC (7-amino-4-methylcoumarin) at 37° C. was monitored with an MWGt Sirius HT fluorescence microplate reader (BIO-TEK® Instruments) equipped with a 360 nm excitation and a 460 nm emission filter."}, "[2]": {"test_system": "poly (ADP-ribose) polymerase (PARP)", "test": "Western blot of PARP cleavage in SK-N-SH cells", "format": "cell-based, human", "details": "Example 15, single agent", "description": "The induction of an apoptotic response in cancer cells by the addition of syringolin A was verified by monitoring the cleavage of poly (ADP-ribose) polymerase (PARP), a common response during apoptosis. SK-N-SH cells were cultured in the presence or absence of 20 μM syringolin A for 0, 24 and 48 hours, and cell lysates were then generated as described in Example 4 and probed for the presence of PARP by Western blotting using rabbit polyclonal anti-PARP (#9542) (diluted 1:1000) and the HRP-linked anti-rabbit secondary antibody described in Example 4. The results were representative of four independent experiments. […] The treatment of cells for 48 hours further increased the levels of cleaved PARP, whereas noncleaved PARP disappeared. In a similar manner, syringolin A induced PARP cleavage in SKOV3 cells, but noncleaved PARP was still detected 48 hours after treatment (FIG. 5B).\nThe role of glidobactin A (GlbA) in apoptosis and its correlation with autophagy has not previously been examined. Therefore, in a series of experiments, cell lysates of SK-N-SH cells were treated with GlbA in the presence and absence of the autophagy inhibitor 3-methyladenine (3-MA) and probed for poly ADP-ribose polymerase (PARP). The cleavage of PARP produces a smaller 89 kDa fragment which is indicative of late apoptosis."}, "[3]": {"test_system": "microtubule-associated protein 1 light chain 3 (LC3)", "test": "immunoblot of LC3 conversion (autophagy) in SK-N-SH cells", "format": "cell-based, human", "details": "compared to untreated control cells", "description": "To verify whether autophagy is induced in GlbA-treated cells, levels of microtubule-associated protein 1 light chain 3 (LC3), a reliable marker of autophagosomes, were measured. […] Therefore, this characteristic conversion of LC3 can be used to monitor autophagic activity. SK-N-SH cells were treated with GlbA in the presence or absence of 3-MA, and cell lysates were probed with LC3."}, "SK-N-SH cells": {"test_system": "SK-N-SH cells", "test": "Cytox-Glo cytotoxicity assay", "format": "cell-based, human", "details": "light microscope, 48 hours", "description": "Determination of potential cytotoxic effects by GlbA and/or […] was carried out by using the Cytox-Glo cytotoxicity assay, which measures “dead cell proteases” from cells that have lost membrane integrity. Briefly, cells were treated with a single concentration of compound for 48 hours in a final volume of 100 μl, after which 50 μl of AAF-Glo luminogenic peptide substrate (alanyl-alanyl-phenylalanyl-aminoluciferin) was added to each well and incubated for 15 min at room temperature. The luminescence was measured by a Dynex MLX luminometer to give a reading of cells with damaged membranes. Next, 50 μl of digitonin was added to each well and the samples incubated for 15 minutes at room temperature. Luminescence was measured a second time to determine total cell number. Controls included cells with vehicle only, media, and media with compound.\nSK-N-SH cells were treated with 0.25 μM GlbA or 25 μM SylA and SKOV3 cells were treated with 1.0 μM GlbA or 25 μM SylA. As illustrated in FIGS. 16A and 16B, control cells (treated with DMSO and H2O representing GlbA and SylA controls, respectively) were viable and no cytotoxicity was detected.\nTo determine if autophagy plays a role in GlbA/SylA-induced cell death, levels of cytotoxicity in cells pre-treated with 3-methyladenine (3-MA), an established autophagy inhibitor, were measured using the assay described in Example 12."}, "Papaya latex papain": {"biological_target": "T2, Papaya latex papain (Carica papaya, UniProt P00784)", "T2 construct": "Papaya latex papain (Sigma-Aldrich); purchased Sigma-Aldrich; host or cells: papaya latex", "T2 sequence (P00784 134-345)": "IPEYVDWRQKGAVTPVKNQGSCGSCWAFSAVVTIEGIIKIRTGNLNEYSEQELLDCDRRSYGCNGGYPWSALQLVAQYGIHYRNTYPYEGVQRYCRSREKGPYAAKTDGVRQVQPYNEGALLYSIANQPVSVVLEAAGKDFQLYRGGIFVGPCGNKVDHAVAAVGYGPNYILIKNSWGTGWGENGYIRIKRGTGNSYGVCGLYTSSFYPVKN", "test": "SensoLyte Green Protease Fluorometric Assay, papain inhibition", "format": "biochemical", "details": "syringolin A up to 500 μM", "description": "(§1) To test the specificity of syringolin A inhibition of proteasome activities, bovine pancreas trypsin (Pierce) and Papaya latex papain (Sigma-Aldrich) inhibition assays with syringolin A were performed with the SensoLyte™ Green Protease Fluorometric Assay Kit (AnaSpec., San Jose, Calif., USA) according to the instructions of the manufacturer. Reaction volumes of 100 μl contained an enzyme concentration of 200 ng/ml and various amounts of test inhibitors. Protease activity was monitored at 33° C. in a FluoroCount Microplate Fluorometer (FluoroCount, Packard, Canberra, Australia) using 485 nm excitation and a 550 nm emission filters."}, "bovine pancreas trypsin": {"biological_target": "T3, bovine pancreas trypsin (Bos taurus, UniProt P00760)", "T3 construct": "bovine pancreas trypsin (Pierce); purchased Pierce; host or cells: bovine pancreas", "T3 sequence (P00760 24-246)": "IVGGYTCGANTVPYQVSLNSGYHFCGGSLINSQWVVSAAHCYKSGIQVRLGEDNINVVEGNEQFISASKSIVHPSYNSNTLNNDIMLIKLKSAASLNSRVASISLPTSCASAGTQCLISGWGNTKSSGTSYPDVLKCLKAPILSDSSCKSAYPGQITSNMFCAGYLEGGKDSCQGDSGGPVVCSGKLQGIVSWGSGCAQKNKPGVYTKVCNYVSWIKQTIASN", "test": "SensoLyte Green Protease Fluorometric Assay, trypsin inhibition", "format": "biochemical", "details": "syringolin A up to 500 μM", "description": "as §1"}, "[4]": {"biological_target": "T4, proteasome activity in SK-N-SH neuroblastoma cells (Homo sapiens, UniProt P28074)", "T4 construct": "endogenous in cells; host or cells: SK-N-SH", "T4 sequence (P28074 60-263)": "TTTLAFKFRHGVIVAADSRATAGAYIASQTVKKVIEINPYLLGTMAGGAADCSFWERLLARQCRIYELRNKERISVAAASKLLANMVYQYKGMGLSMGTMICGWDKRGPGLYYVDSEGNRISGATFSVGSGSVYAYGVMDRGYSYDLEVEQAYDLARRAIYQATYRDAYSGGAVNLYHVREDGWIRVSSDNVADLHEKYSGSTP", "test": "Proteasome-Glo cell-based luminescent assay", "details": "2 hours incubation", "description": "Syringolin A was tested as a proteasome inhibitor in vivo in cultured mammalian cancer cells. Inhibition of proteasome activity in human SK-N-SH neuroblastoma cells was measured using the Proteasome-Glo™ cell-based luminescent assay (Promega) in solid white 96-well microtiter cell culture plates. Ten μl of syringolin A (at various concentrations) was added to each well containing SK-N-SH cells (plated at a concentration of 1.0×10^5 cells/ml in 90 μl well volumes 24 hours prior) and a negative control and media only control were included. Cells were incubated with 1-100 μM syringolin A for 2 hours or 24 hours, and then equilibrated to room temperature for 15 minutes before 100 μl of Proteasome-Glo reagent (containing bioluminescent substrate Suc-LLVY-aminoluciferin) was added to the cells. Luminescence (indicated as relative luminescence units [RLU]) was read after 15-30 minutes on a Dynex MLX Luminometer.\nTo trace the kinetics of proteasome inhibition in the presence of syringolin, the same experiment was performed, but in this case, 100 μl of Proteasome-Glo reagent was added to cells first, followed by the addition of syringolin A at various concentrations, and the proteasome activity was measured over time.\nThe cell culture-based proteasome inhibition assay was performed as previously described (Groll et al. 2008. Nature 452:755-758, which is incorporated herein by reference in its entirety). Briefly, wells of white-walled 96-well microtiter cell culture plates were seeded at a density of 1×10^4 cells/well (SK-N-SH) or 5×10^3 cells/well (SKOV3) in 90 μl. After 24 hours, 10 μl GlbA or SylA were added at increasing concentrations (0-100 μM) and incubated for 2 hours. […] Cell Death Differ 9:1017-1025; Meng, et al. 1999. PNAS 96:10403-10408, each of which is incorporated herein by reference in its entirety) were used as positive and negative controls, respectively. Microtiter plates were then equilibrated to room temperature for 15 min before adding 100 μl of proteasome Glo™ reagent (containing bioluminescent substrate Suc-LLVY-aminoluciferin) per well. Luminescence was measured on a Dynex MLX luminometer, according to the manufacturer's instructions (Promega)."}},
  "note": "Residues, ends and D or L forms follow the SMILES beside them. *: point of attachment. Cbz = O=C(OCc1ccccc1)*",
  "data": [
    {"molecule": "glidobactin A", "values": [
      {"measurement": "proteasome chymotrypsin-like activity", "setting": "[1]; 500-fold dilution of 10× concentrated HPLC peak", "value": "reduced proteasome activity to background levels"}
    ]},
    {"molecule": "Cn1cnc(N)c2ncnc1-2", "note": "[3-MA, 3-methyladenine, reference compound]", "values": [
      {"measurement": "PARP cleavage", "setting": "[2]", "value": "had no effect on PARP cleavage"},
      {"measurement": "LC3-II amount / conversion of LC3", "setting": "[3]", "value": "did not alter the conversion of LC3"},
      {"measurement": "cell proliferation and killing, 3-MA control cells", "setting": "SK-N-SH cells", "value": "suppresses SK-N-SH cell proliferation without killing cells"}
    ]},
    {"molecule": "CC(C)C[C@@H](C=O)NC(=O)[C@H](CC(C)C)NC(=O)[C@H](CC(C)C)NC(=O)OCc1ccccc1", "note": "[MG-132, reference compound] (Cbz-Leu-Leu-Leu-aldehyde)", "values": [
      {"measurement": "mode of proteasome inhibition (reaction velocity over time)", "setting": "[1]", "value": "reversible"},
      {"measurement": "papain activity", "setting": "Papaya latex papain", "value": "also inhibits cysteine proteases"},
      {"measurement": "trypsin activity", "setting": "bovine pancreas trypsin", "value": "trypsin inhibitor"}
    ]},
    {"molecule": "C/C=C/C/C=C/CCC(=O)[C@H]1O[C@H]1C(N)=O", "note": "[cerulenin, reference compound]", "values": [
      {"measurement": "proteasome activity in cells", "setting": "[4]", "value": "does not significantly inhibit proteasome activity"}
    ]}
  ]
}
